US20240043427A1 (Gilead Sciences, Inc., priority 2020, published 2024)
Values joined by “and” are separate entries in the source; they are usually repeats but may differ in a detail not shown here. Identical values can stand only once. Like-named read-outs stand apart in the source and are kept apart here.

Tests used:
CD73 [1] = target: T1, CD73 (Homo sapiens (Human), UniProt P21589); assay: MDA-MB-231 Cell Based CD73 Activity Assay; settings: MDA-MB-231-GFP cells, RPMI medium with 10% human plasma, 200 uM AMP
CD73 [2] = target: T1, CD73; format: biochemical; settings: 1 mM NaH2PO4 in enzyme buffer, CD73 0.3 nM, AMP 15 uM
CD73 [3] = target: T1, CD73; assay: CD73 Biochemical IC50 Assay; settings: CD73 0.3 nM, AMP 15 uM, 25 mM Tris pH 7.4, 5 mM MgCl2
Description: CD73 Biochemical IC50 Assay
Compound serial dilutions were pre-spotted into Thermo Nunc assay plate. 50 μL CD73 enzyme buffer (CD73 purchased from R&D system=0.6 nM, 25 mM Tris, pH 7.4, 5 mM MgCl2) was added into the assay plate and incubated for 15 mins. […] The samples were run using Rapid fire.

CD73 [4] = target: T1, CD73; assay: MDA-MB-231 Cell Based CD73 Activity Assay (DMEM); settings: MDA-MB-231-GFP cells, DMEM medium with 10% human plasma, 200 uM AMP

T1 sequence (P21589 27-574): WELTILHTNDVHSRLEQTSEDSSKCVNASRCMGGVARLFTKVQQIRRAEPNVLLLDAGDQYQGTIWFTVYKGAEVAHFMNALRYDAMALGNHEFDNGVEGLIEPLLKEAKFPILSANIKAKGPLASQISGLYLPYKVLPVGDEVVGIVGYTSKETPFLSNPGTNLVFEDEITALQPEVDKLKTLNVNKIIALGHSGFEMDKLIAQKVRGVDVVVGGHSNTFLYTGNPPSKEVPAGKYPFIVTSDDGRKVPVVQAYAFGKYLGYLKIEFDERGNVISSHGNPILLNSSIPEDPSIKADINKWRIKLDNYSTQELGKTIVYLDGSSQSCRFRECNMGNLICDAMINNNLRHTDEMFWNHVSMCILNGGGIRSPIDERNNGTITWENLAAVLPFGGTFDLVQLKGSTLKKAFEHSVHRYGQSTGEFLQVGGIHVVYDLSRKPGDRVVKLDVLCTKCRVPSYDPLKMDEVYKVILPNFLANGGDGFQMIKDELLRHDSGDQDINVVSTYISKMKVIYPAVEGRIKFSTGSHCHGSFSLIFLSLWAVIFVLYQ

Row | Compound | EC50 (CD73 [1]) | IC50 (CD73 [2]) [nM] | IC50 (CD73 [3]) | EC50 (CD73 [4]) [nM]
1 | O=c1[nH]cc(-c2cc([C@H]3C[C@@H]3c3ccccn3)c3nccn3n2)c(=O)[nH]1 (racemic) [Example 52, 5-[8-[(1S,2S)-2-(2-pyridyl)cyclopropyl]imidazo[1,2-b]pyridazin-6-yl]-1H-pyrimidine-2,4-dione and 5-[8-[(1R,2R)-2-(2-pyridyl)cyclopropyl]imidazo[1,2-b]pyridazin-6-yl]-1H-pyrimidine-2,4-dione] | 2.69 nM | 1.14 | 20.1 nM | –
2 | O=c1[nH]cc(-c2cc([C@H]3C[C@@H]3c3ccc(Cl)c(F)c3)c3nccn3n2)c(=O)[nH]1 (racemic) [Example 98, 5-(8-((1S,2S)-2-(4-chloro-3-fluorophenyl)cyclopropyl)imidazo[1,2-b]pyridazin-6-yl)pyrimidine-2,4(1H,3H)-dione and 5-(8-((1R,2R)-2-(4-chloro-3-fluorophenyl)cyclopropyl)imidazo[1,2-b]pyridazin-6-yl)pyrimidine-2,4(1H,3H)-dione] | 7.23 nM | 2 | 16.4 nM | 17.7
3 | CC1(C)CCN(c2cc(-c3c[nH]c(=O)[nH]c3=O)nn3ccnc23)C1 [Example 72, 5-[8-(3,3-dimethylpyrrolidin-1-yl)imidazo[1,2-b]pyridazin-6-yl]-1H-pyrimidine-2,4-dione] | 12.4 nM | 6.97 | 26.5 nM | 25.9
4 | O=c1[nH]cc(-c2cc(N3CCCC(F)(F)C3)c3nccn3n2)c(=O)[nH]1 [Example 93, 5-(8-(3,3-difluoropiperidin-1-yl)imidazo[1,2-b]pyridazin-6-yl)pyrimidine-2,4(1H,3H)-dione] | 556 nM | > 250 | 522 nM | 685
5 | O=c1[nH]cc(-c2cc(N3CCC(c4ccc(F)cc4)C3)c3nccn3n2)c(=O)[nH]1 (stereo in doubt) [Example 67, 5-[8-[(3R)-3-(4-fluorophenyl)pyrrolidin-1-yl]imidazo[1,2-b]pyridazin-6-yl]-1H-pyrimidine-2,4-dione] | 14.3 nM | 4.83 | 30.1 nM | 30.3
6 | O=c1[nH]cc(-c2cc(N3CCC(F)(F)CC3)c3nccn3n2)c(=O)[nH]1 [Example 70, 5-[8-(4,4-difluoro-1-piperidyl)imidazo[1,2-b]pyridazin-6-yl]-1H-pyrimidine-2,4-dione] | 240 nM | 134 | 221 nM | 285
7 | O=c1[nH]cc(-c2cc([C@H]3C[C@@H]3c3ccncc3)c3nccn3n2)c(=O)[nH]1 (racemic) [Example 54, 5-[8-[(1S,2S)-2-(4-pyridyl)cyclopropyl]imidazo[1,2-b]pyridazin-6-yl]-1H-pyrimidine-2,4-dione and 5-[8-[(1R,2R)-2-(4-pyridyl)cyclopropyl]imidazo[1,2-b]pyridazin-6-yl]-1H-pyrimidine-2,4-dione] | 3.4 nM | 1.98 | 17.7 nM | –
8 | O=c1[nH]cc(-c2cc(N3CC(F)(F)C(F)(F)C3)c3nccn3n2)c(=O)[nH]1 [Example 109, 5-(8-(3,3,4,4-tetrafluoropyrrolidin-1-yl)imidazo[1,2-b]pyridazin-6-yl)pyrimidine-2,4(1H,3H)-dione] | 13 nM | 2.97 | 44.5 nM | –
9 | O=c1[nH]cc(-c2cc(C3(C(F)(F)F)CC3)c3nc(C4(C(F)(F)F)CC4)cn3n2)c(=O)[nH]1 [Example 19, 5-[2,8-bis[1-(trifluoromethyl)cyclopropyl]imidazo[1,2-b]pyridazin-6-yl]-1H-pyrimidine-2,4-dione] | > 25000 nM | – | > 2500 nM | –
10 | O=c1[nH]cc(-c2cc(C3(C(F)(F)F)CC3)c3nccn3n2)c(=O)[nH]1 [Example 18, 5-[8-[1-(trifluoromethyl)cyclopropyl]imidazo[1,2-b]pyridazin-6-yl]-1H-pyrimidine-2,4-dione] | 20400 nM | – | > 2500 nM | –
11 | CC1(C)CCN(c2cc(-c3c[nH]c(=O)[nH]c3=O)nc3ncnn23)C1 [Example 92, 5-(7-(3,3-dimethylpyrrolidin-1-yl)-[1,2,4]triazolo[1,5-a]pyrimidin-5-yl)pyrimidine-2,4(1H,3H)-dione] | 23.6 nM | 6.57 | 15.6 nM | –
12 | O=c1[nH]cc(-c2cc(-n3cccn3)c3nccn3n2)c(=O)[nH]1 [Example 78, 5-(8-pyrazol-1-ylimidazo[1,2-b]pyridazin-6-yl)-1H-pyrimidine-2,4-dione] | 1230 nM | – | 1920 nM | –
13 | O=c1[nH]cc(-c2cc(COCc3ccccc3)c3nccn3n2)c(=O)[nH]1 [Example 58, 5-(8-((benzyloxy)methyl)imidazo[1,2-b]pyridazin-6-yl)pyrimidine-2,4(1H,3H)-dione] | 704 nM | – | 548 nM | –
14 | O=c1[nH]cc(-c2cc([C@H]3C[C@@H]3Cc3ccccc3)c3nccn3n2)c(=O)[nH]1 (racemic) [Example 105, 5-(8-((1S,2R)-2-benzylcyclopropyl)imidazo[1,2-b]pyridazin-6-yl)pyrimidine-2,4(1H,3H)-dione and 5-(8-((1R,2S)-2-benzylcyclopropyl)imidazo[1,2-b]pyridazin-6-yl)pyrimidine-2,4(1H,3H)-dione] | 38.5 nM | – | 285 nM | –
15 | Cc1cnc2c(C3CCC(F)(F)CC3)cc(-c3c[nH]c(=O)[nH]c3=O)nn12 [Example 57, 5-(8-(4,4-difluorocyclohexyl)-3-methylimidazo[1,2-b]pyridazin-6-yl)pyrimidine-2,4(1H,3H)-dione] | 3300 nM | – | > 2500 nM | –
16 | O=c1[nH]cc(-c2cc(C3CC3)c3ncc(F)n3n2)c(=O)[nH]1 [Example 69, 5-(8-cyclopropyl-3-fluoro-imidazo[1,2-b]pyridazin-6-yl)-1H-pyrimidine-2,4-dione] | 47.8 nM | – | 55.4 nM | –
17 | O=c1[nH]cc(-c2cc(-n3ccnc3)c3nccn3n2)c(=O)[nH]1 [Example 11, 5-(8-imidazol-1-ylimidazo[1,2-b]pyridazin-6-yl)-1H-pyrimidine-2,4-dione] | 74.1 nM | – | 110 nM | –
18 | O=c1[nH]cc(-c2cc([C@H]3C[C@@H]3c3ccc(C(F)(F)F)cc3)c3nccn3n2)c(=O)[nH]1 (racemic) [Example 42, 5-[8-[(1S,2S)-2-[4-(trifluoromethyl)phenyl]cyclopropyl]imidazo[1,2-b]pyridazin-6-yl]-1H-pyrimidine-2,4-dione and 5-[8-[(1R,2R)-2-[4-(trifluoromethyl)phenyl]cyclopropyl]imidazo[1,2-b]pyridazin-6-yl]-1H-pyrimidine-2,4-dione] | 7.59 nM | 2.08 | 28.7 nM | –
19 | O=c1[nH]cc(-c2cc([C@H]3C[C@@H]3c3cccnc3)c3nccn3n2)c(=O)[nH]1 (racemic) [Example 53, 5-[8-[(1S,2S)-2-(3-pyridyl)cyclopropyl]imidazo[1,2-b]pyridazin-6-yl]-1H-pyrimidine-2,4-dione and 5-[8-[(1R,2R)-2-(3-pyridyl)cyclopropyl]imidazo[1,2-b]pyridazin-6-yl]-1H-pyrimidine-2,4-dione] | 5.16 nM | 1.52 | 20.7 nM | –
20 | O=c1[nH]cc(-c2cc(N3CCOCC3)c3nccn3n2)c(=O)[nH]1 [Example 10, 5-(8-morpholinoimidazo[1,2-b]pyridazin-6-yl)-1H-pyrimidine-2,4-dione] | 473 nM | – | 980 nM | –
21 | O=c1[nH]cc(-c2cc(CS(=O)(=O)c3ccccc3)c3nc(CS(=O)(=O)c4ccccc4)cn3n2)c(=O)[nH]1 [Example 21, 5-[2,8-bis(benzenesulfonylmethyl)imidazo[1,2-b]pyridazin-6-yl]-1H-pyrimidine-2,4-dione] | > 25000 nM | – | > 2500 nM | –
22 | CN(Cc1ccccc1)c1cc(-c2c[nH]c(=O)[nH]c2=O)nn2ccnc12 [Example 13, 5-(8-(benzyl(methyl)amino)imidazo[1,2-b]pyridazin-6-yl)pyrimidine-2,4(1H,3H)-dione] | 692 nM and 896 nM | – | 368 nM and 607 nM | –
23 | O=c1[nH]cc(-c2cc([C@H]3C[C@@H]3c3ccc(F)c(C(F)(F)F)c3)c3nccn3n2)c(=O)[nH]1 (racemic) [Example 95, 5-(8-((1S,2S)-2-(4-fluoro-3-(trifluoromethyl)phenyl)cyclopropyl)imidazo[1,2-b]pyridazin-6-yl)pyrimidine-2,4(1H,3H)-dione and 5-(8-((1R,2R)-2-(4-fluoro-3-(trifluoromethyl)phenyl)cyclopropyl)imidazo[1,2-b]pyridazin-6-yl)pyrimidine-2,4(1H,3H)-dione] | 39.1 nM | – | 49.5 nM | –
24 | N#Cc1cnc2c(C3CCC(F)(F)CC3)cc(-c3c[nH]c(=O)[nH]c3=O)nn12 [Example 56, 8-(4,4-difluorocyclohexyl)-6-(2,4-dioxo-1,2,3,4-tetrahydropyrimidin-5-yl)imidazo[1,2-b]pyridazine-3-carbonitrile] | 4460 nM | – | > 2500 nM | –
25 | O=c1[nH]cc(-c2cc([C@H]3C[C@@H]3c3ccc(F)c(Cl)c3)c3nccn3n2)c(=O)[nH]1 (racemic) [Example 99, 5-(8-((1S,2S)-2-(3-chloro-4-fluorophenyl)cyclopropyl)imidazo[1,2-b]pyridazin-6-yl)pyrimidine-2,4(1H,3H)-dione and 5-(8-((1R,2R)-2-(3-chloro-4-fluorophenyl)cyclopropyl)imidazo[1,2-b]pyridazin-6-yl)pyrimidine-2,4(1H,3H)-dione] | 6.05 nM | – | 19.3 nM | –
26 | O=c1[nH]cc(-c2cc(CS(=O)(=O)c3ccccc3)c3nccn3n2)c(=O)[nH]1 [Example 20, 5-[8-(benzenesulfonylmethyl)imidazo[1,2-b]pyridazin-6-yl]-1H-pyrimidine-2,4-dione] | > 25000 nM | – | > 2500 nM | –
